Assays:
iDCs [1] = assay: aNK-induced apoptosis of iDCs at NK:DC ratio 5:1 (7-AAD assay); assay type: cell-based, human
Procedure: (a) CD56^+ NK cells were purified from the blood of healthy donors. NK cells were maintained in culture with suboptimal concentrations of interleukin-2 (IL-2) (100 ng/ml) (rNK cells) or activated (aNK cells) by the addition PHA (10 μg/ml) and IL-2 (10 μg/ml) to cultures. […] Data represent the mean±sd of three independent experiments. […] In some cases, iDCs were cocultured with aNK cells at the NK:DC ratio of 5:1. […] Cell death was then quantified with the 7-AAD assay. […] (g) iDCs were cultured for 24 h either alone or with aNK cells (NK:DC ratio of 5:1), in the absence or presence of blocking anti-DR4 antibodies (250 ng/ml). The viability status of DCs was determined by flow cytometry with the 7-AAD assay. […]
FIGS. 11(a)-(b). […] Cell death was then quantified with the 7-AAD assay. […]
rNK or aNK were cocultured during 24 h with iDCs or mDCs at a ratio of 1:5 (2×105 NK+10×105 DC/1 ml), unless otherwise indicated. DC survival was determined with the 7-AAD assay, as described previously55. […]
Immature DCs (iDCs) were prepared from sorted monocytes from healthy donors, cultured for 6 days in the presence of IL-4 and GM-CSF. […] The influence of NK-DC interaction on DC's maturation and apoptosis was analyzed using multiparametric flow cytometry, combining 7-AAD staining with membrane and intracellular staining with mAbs specific for HLA-DR, DC-SIGN, CD83, CD86, DR4, mTRAIL, etc.

R5-HIV-1Ba-L = assay: HIV-1 replication in infected iDCs, p24 ELISA in culture supernatant; assay type: cell-based; settings: inhibitor 10 μg/ml, 3 days
Procedure: FIGS. 6 (a), (b) and (c). Exogenous rh-HMGB1 triggers HIV-1 and HIV-2 replication in iDC. (a) HIV-1-infected iDC were cultured alone or in the presence of aNK cells for 3 days. Rh-HMGB1 (1 μg/ml) was added in some cultures. HIV replication was measured by p24 quantification in culture supernatant (b) HIV1-infected iDC were cultured alone or in the presence of aNK cells for 3 days. Blocking anti-HMGB1 antibodies (10 μg/ml) or glycyrrhizin (10 μg/ml) were added at culture initiation. HIV replication was measured by p24 quantification in culture supernatant. The mean±sd of three independent experiments is shown. Statistical comparisons were made with the non parametric Mann-Whitney test. * p<0.05; (c) HIV-2-infected iDC were cultured alone or in the presence of aNK cells for 3 days. Rh-HMGB1 (1 μg/ml) was added in some cultures. HIV replication was measured by p24 quantification in culture supernatant.
Virus stock preparation was prepared by amplification of R5-HIV-1Ba-L on MDM from healthy donors. Viral stock was then clarified by centrifugation prior to determination of HIV1 p24 concentration. iDCs were plated in 96-well culture plates at 200,000 cells/well and incubated for 3 hours at 37° C. in a 5% CO2 atmosphere with R5-HIV-1BAL at various concentrations (0.001 to 10 ng p24/ml). Cells were harvested, washed four times with media containing 10% FCS and, when indicated, rNK or aNK cells were added at a NK:DC ratio of 1:5, unless otherwise indicated. NK-DC cocultures lasted 24 h before analysis of the maturation stage of DCs and/or quantification of viral production. In some experiments (FIG. 6), HIV-1 infected iDCs were incubated alone or with aNK cells for 3 days, in the presence of rh-HMGB1 (1 μg/ml) (R&DSystems), and in some cultures in the presence of rabbit antiHMGB1 Abs (10 μg/ml) (Abcam, Cambridge, UK) or Glycyrrhizin (10 μg/ml).
The concentration of HIV-1 in the supernatant of infected cell cultures was determined by measuring the amount of p24 protein by ELISA (Ingen, Belgium). DNA from cells was extracted using the GIAamp DNA Blood Mini Kit (Qiagen, Basel, Switzerland) and quantified HIV-1 proviral load by RT-PCR as described previously54. The frequency of HIV-1-infected cells was determined by flow cytometry to detect intracellular p24 molecule. Cells were surface stained with antibodies specific for CD40 (BD Biosciences, San Jose, Calif.) to target DC and intracellular stained with p24-specific antibodies (Coulter). Stained cells were fixed in 1% PFA, immediately acquired on a FACScalibur (Becton Dickinson) and analyzed with FlowJo software. In some experiments infected DCs were imaged, after immunofluorescence, by laser scanning confocal microscopy.

iDCs [2] = assay: aNK-dependent maturation of iDCs in 24 h aNK-iDC coculture (CD86/HLA-DR flow cytometry); assay type: cell-based, human; settings: uninfected iDCs, inhibitor 10 μg/ml added at initiation
Procedure: FIG. 3 (a)-(e). aNK-dependent maturation of HIV-1-infected iDCs is mediated by HMGB1 and involves RAGE. (a) Left panel: iDCs were cultured for 24 h either alone or with aNK cells, in the presence of blocking anti-HMGB1 antibodies (10 μg/ml) or glycyrrhizin (10 μg/ml). The maturation status of DCs was determined by flow cytometry with CD86 and HLA-DR—specific antibodies. Right panel: same experiment, but performed with HIV-1 infected iDCs. Data represent mean±sd of at least three independent experiments, and statistical comparisons were made with the non parametric Mann-Whitney test. * p<0.05. (b) iDC (10^6 cells/ml) were cultured for 48 h with increasing concentrations (1-10 μg/ml) of rh-HMGB1. Cells were then stained with anti-CD86, -HLA-DR, -CD80, -CD83, DC-LAMP and -CD40 antibodies and analyzed by flow cytometry. (c) Influence of rh-HMGB1 on cytokine and chemokine production (determined by MAP) by DCs. iDCs (10^6 cells/ml) were incubated for 48 h in medium or in presence of rh-HMGB1 (1 or 10 μg/ml). As a positive control, iDCs were stimulated with LPS (DC0). […] (e) iDC, DC0, uninfected or HIV-1-infected iDC cocultured for 24 h with aNK cells, were incubated with rh-HMGB1 (1 μg/ml) and subsequently stained with anti-RAGE antibodies and analyzed by flow cytometry. […]

HIV-infected DCs = assay: TRAIL-induced apoptosis of iDCs and HIV-infected DCs (7-AAD assay); assay type: cell-based, human; settings: 24 h with 1-1000 ng/ml rhs-TRAIL
Procedure: FIGS. 10(a)-(d). R5-HIV-infected DCs are resistant to killing by aNK cells, although TRAIL secretion persists in the presence of HIV-1 (a) iDCs were either infected with R5-HIV-1BaL (1 ng/ml of p24) for 24 h or uninfected, and after several washes, they were incubated with aNK cells at the ratios of 1:5 and 5:1. iDCs viability was assayed with the 7-AAD test by flow cytometry. Living cells are 7-AAA^−, apoptotic cells 7-AAD^+, and apoptotic debris are 7-AAD^−FSC^low. Dot plots represent one of at least three independent experiments. […] DCs were uninfected (iDCs), infected with R5-HIV-1 at 1 ng/ml of p24 (HIV-DCs) or stimulated with LPS for 48 h. Cells were then stained with CD86 and HLA-DR. Data represent one of at least three independent experiments. (c) TRAIL secretion is not affected by HIV infection of iDCs. 24 h cell-free culture supernatants of iDCs, HIV-infected DCs (10^6/ml), aNK cells-iDCs cocultures (ratio 5:1) and aNK cells-HIV-infected DCs cocultures (ratio 5:1) were tested for soluble TRAIL (sTRAIL) content by ELISA. Data represent the mean±sd of three independent experiments. […] Cell death was then quantified with the 7-AAD assay. The mean±sd of three independent experiments was presented.

With `CC1(C)[C@@H](O[C@H]2O[C@H](C(=O)O)[C@@H](O)[C@H](O)[C@H]2O[C@@H]2O[C@H](C(=O)O)[C@@H](O)[C@H](O)[C@H]2O)CC[C@]2(C)[C@H]3C(=O)C=C4[C@@H]5C[C@@](C)(C(=O)O)CC[C@]5(C)CC[C@@]4(C)[C@]3(C)CC[C@@H]12` [glycyrrhizin, reference compound] the “resistance of HIV-1-infected iDCs to aNK-induced apoptosis (inhibition assays)” value (iDCs [1]; HIV-1-infected iDCs, NK:DC ratio 5:1, AZT added at infection, inhibitors at coculture initiation) was “found dependent on HMGB1”, the “HIV-1 production (p24 in supernatant)” value (R5-HIV-1Ba-L; infected DC cocultured with aNK cells) was “abrogated HIV-1 production” and the “HIV-1 production (p24 in supernatant)” value (R5-HIV-1Ba-L; infected DC cultured alone) was “abrogated HIV-1 production”. The “proportions of mature DCs (CD86bright HLA-DRbright)” value (iDCs [2]) was “reduced the proportions of mature DCs (identified as CD86brightHLA-DRbright) to the baseline level observed without aNK cells”.

In the case of `C/C=C/[C@H]1O[C@@](O)([C@@H](C)[C@H](O)[C@H](C)[C@H]2OC(=O)/C(OC)=C/C(C)=C/[C@@H](C)[C@@H](O)[C@@H](CC)[C@@H](O)[C@H](C)C/C(C)=C/C=C/[C@@H]2OC)C[C@@H](O[C@H]2C[C@@H](O)[C@H](OC(N)=O)[C@@H](C)O2)[C@@H]1C` [Concanamycin A], the “NK-dependent iDCs apoptosis” value (iDCs [1]; uninfected iDCs, aNK cells, NK:DC ratio 5:1, 24 h) is reported as “no effect”.

B1: rhs-TRAIL: recombinant human soluble TRAIL (protein, UniProt P50591 39-281, looked up)
extracellular domain: TNELKQMQDKYSKSGIACFLKEDDSYWDPNDEESMNSPCWQVKWQLRQLVRKMILRTSEETISTVQEKQQNISPLVRERGPQRVAAHITGTRGRSNTLSSPNSKNEKALGRKINSWESSRSGHSFLSNLHLRNGELVIHEKGFYYIYSQTYFRFQEEIKENTKNDKQMVQYIYKYTSYPDPILLMKSARNSCWSKDAEYGLYSIYQGGIFELKENDRIFVSVTNEHLIDMDHEASFFGAFLVG
modifications: extracellular domain
With B1 the “cell death of HIV-1-infected DCs” value (HIV-infected DCs) was “still susceptible to TRAIL-induced apoptosis”.

Reference: patent publication US10012655B2, “Method for quantitating total HMGB1 protein in biological samples” (INSTITUT PASTEUR, priority 2008, dated 2018)
